PubChem BioAssay (NCI)
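Interpolation was linear, between the two tested concentrations surrounding the appropriate level; five concentrations were tested over 48 hours in 96-well plates. TGI denotes the concentration required for complete inhibition of growth.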

Key:
Experiment in all cases: NCI-60 cell line screen, 48 h
DMS 273 small cell lung = tested on: DMS 273 small cell lung
HOP-18 NSCLC = tested on: HOP-18 NSCLC
M19-MEL melanoma = tested on: M19-MEL melanoma
SNB-78 CNS = tested on: SNB-78 CNS
XF 498 CNS = tested on: XF 498 CNS
LXFL 529 NSCLC = tested on: LXFL 529 NSCLC
RXF-631 renal = tested on: RXF-631 renal

SMILES	TGI (DMS 273 small cell lung) [µM]	TGI (HOP-18 NSCLC) [µM]	TGI (M19-MEL melanoma) [µM]	TGI (SNB-78 CNS) [µM]	TGI (XF 498 CNS) [µM]	TGI (LXFL 529 NSCLC) [µM]	TGI (RXF-631 renal) [µM]
Nc1nc(N)c(N=Nc2ccccc2)c(=O)[nH]1	> 100	> 100	> 100	71.4	> 100		
O=C(N[C@H](CO)[C@H](O)c1ccc([N+](=O)[O-])cc1)C(Cl)Cl	> 100		> 100			> 100	
C=C(CN(C)C)C(=O)c1ccccc1	39.2	14.8	22.9	62.6	29.9	5.64	48.5
